From the Kinase Knowledgebase extract (Sharma et al. 2016)

Columns and labels:
[1] = biological target: EGFR (UniProt P00533)
[2] = biological target: EGFR (Balb/c mice) (UniProt P00533); conditions: balb/c3t3
[3] = biological target: EGFR (Balb/c mice) (UniProt P00533); conditions: balb/mk cells
[4] = biological target: EGFR (human) (UniProt P00533); conditions: a431
Chain of EGFR (human) (P00533 whole entry, looked up): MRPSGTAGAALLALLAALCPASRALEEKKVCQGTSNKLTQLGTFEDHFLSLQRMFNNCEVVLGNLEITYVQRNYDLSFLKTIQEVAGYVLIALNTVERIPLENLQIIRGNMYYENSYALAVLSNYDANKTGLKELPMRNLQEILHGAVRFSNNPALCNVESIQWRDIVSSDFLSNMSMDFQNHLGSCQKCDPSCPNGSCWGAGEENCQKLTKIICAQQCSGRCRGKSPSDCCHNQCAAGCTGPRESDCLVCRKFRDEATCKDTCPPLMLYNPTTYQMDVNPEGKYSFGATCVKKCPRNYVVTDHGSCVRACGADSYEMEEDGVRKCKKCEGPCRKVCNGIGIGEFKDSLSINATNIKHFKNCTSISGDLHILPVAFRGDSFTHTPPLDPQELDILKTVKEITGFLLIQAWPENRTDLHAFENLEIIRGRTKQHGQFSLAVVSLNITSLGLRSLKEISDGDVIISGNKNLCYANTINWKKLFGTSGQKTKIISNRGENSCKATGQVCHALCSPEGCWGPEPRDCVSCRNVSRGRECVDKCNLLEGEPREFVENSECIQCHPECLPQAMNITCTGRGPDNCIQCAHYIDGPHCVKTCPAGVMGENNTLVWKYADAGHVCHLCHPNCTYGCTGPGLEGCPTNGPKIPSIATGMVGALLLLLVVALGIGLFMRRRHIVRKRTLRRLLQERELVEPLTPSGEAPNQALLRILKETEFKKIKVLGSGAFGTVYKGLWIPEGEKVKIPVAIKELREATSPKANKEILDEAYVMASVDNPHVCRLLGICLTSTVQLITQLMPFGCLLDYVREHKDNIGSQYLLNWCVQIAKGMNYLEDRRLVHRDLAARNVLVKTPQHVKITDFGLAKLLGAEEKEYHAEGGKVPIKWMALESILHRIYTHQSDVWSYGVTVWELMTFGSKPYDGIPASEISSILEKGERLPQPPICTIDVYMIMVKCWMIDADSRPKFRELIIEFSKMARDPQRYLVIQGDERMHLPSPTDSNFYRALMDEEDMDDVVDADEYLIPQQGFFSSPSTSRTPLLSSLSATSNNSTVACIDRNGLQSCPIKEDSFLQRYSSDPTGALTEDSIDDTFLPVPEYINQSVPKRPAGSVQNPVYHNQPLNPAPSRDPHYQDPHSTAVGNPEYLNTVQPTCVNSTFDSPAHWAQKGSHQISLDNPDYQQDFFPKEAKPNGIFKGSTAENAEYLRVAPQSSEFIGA

Chain of EGFR (P00533 whole entry, looked up): as above

Structure (SMILES)	IC50 [1] [µM]	IC50 [2] [µM]	IC50 [3] [µM]	IC100 [4]
OCCN(CCO)Cc1cc2c(Nc3cccc(Cl)c3)ncnc2[nH]1	0.0005 to 1	0.001 to 0.1	0.1 to 1	–
CN1CCN(C=Nc2ccc(-c3cc4c(Nc5cccc(Cl)c5)ncnc4[nH]3)cc2)CC1	0.0005 to 1	0.001 to 0.1	0.1 to 1	–
CN1CCN(C(=O)c2ccc(-c3cc4c(Nc5cccc(Cl)c5)ncnc4[nH]3)cc2)CC1	0.0005 to 1	0.001 to 0.1	0.1 to 1	–
CCN(C=Nc1cccc(-c2cc3c(Nc4cccc(Cl)c4)ncnc3[nH]2)c1)CC	0.0005 to 1	0.001 to 0.1	0.1 to 1	–
CC(C)OC(=O)Nc1ccc(-c2cc3c(Nc4cccc(Cl)c4)ncnc3[nH]2)cc1	0.0005 to 1	0.001 to 0.1	0.1 to 1	–
CNC(=S)Nc1cccc(-c2cc3c(Nc4cccc(Cl)c4)ncnc3[nH]2)c1	0.0005 to 1	0.001 to 0.1	0.1 to 1	–
COc1ccc(CNCc2cc3c(Nc4cccc(Cl)c4)ncnc3[nH]2)cc1	0.0005 to 1	0.001 to 0.1	0.1 to 1	–
O=S(=O)(Nc1ccc(-c2cc3c(Nc4cccc(Cl)c4)ncnc3[nH]2)cc1)c1ccccc1	0.0005 to 1	0.001 to 0.1	0.1 to 1	–
CN(C)C=Nc1ccc(-c2cc3c(Nc4cccc(Cl)c4)ncnc3[nH]2)cc1	0.0005 to 1	0.001 to 0.1	0.1 to 1	–
CCc1csc(-c2cc3c(Nc4cccc(Cl)c4)ncnc3[nH]2)n1	0.0005 to 1	0.001 to 0.1	0.1 to 1	–
Clc1cccc(Nc2ncnc3[nH]c(CN4CCOCC4)cc23)c1	0.0005 to 1	0.001 to 0.1	0.1 to 1	–
CN1CCN(Cc2cc3c(Nc4cccc(Cl)c4)ncnc3[nH]2)CC1	0.0005 to 1	0.001 to 0.1	0.1 to 1	–
CCS(=O)(=O)Nc1cccc(-c2cc3c(N[C@H](C)c4ccccc4)ncnc3[nH]2)c1	0.0005 to 1	0.001 to 0.1	0.1 to 1	–
Clc1cccc(Nc2ncnc3[nH]c(-c4ccc(NCc5ccccc5)cc4)cc23)c1	0.0005 to 1	0.001 to 0.1	0.1 to 1	–
CN1CCN(C(=O)c2cc3c(Nc4cccc(Cl)c4)ncnc3[nH]2)CC1	0.0005 to 1	0.001 to 0.1	0.1 to 1	Between 0.001 to 1.000 uM
COc1cc(-c2cc3c(Nc4cccc(C)c4)ncnc3[nH]2)ccc1OCc1ccccc1	0.0005 to 1	0.001 to 0.1	0.1 to 1	–
CCNC(=O)Nc1ccc(-c2cc3c(N[C@H](C)c4ccccc4)ncnc3[nH]2)cc1	0.0005 to 1	0.001 to 0.1	0.1 to 1	–
CN(C)C=Nc1cccc(-c2cc3c(Nc4cccc(Cl)c4)ncnc3[nH]2)c1	0.0005 to 1	0.001 to 0.1	0.1 to 1	–
CC(C)S(=O)(=O)Nc1ccc(-c2cc3c(Nc4cccc(Cl)c4)ncnc3[nH]2)cc1	0.0005 to 1	0.001 to 0.1	0.1 to 1	–

Structure (SMILES)	IC50 [1] [µM]	IC50 [2] [µM]	IC50 [3] [µM]	IC100 [4]
C[C@@H](Nc1ncnc2[nH]c(-c3cccc(N=CN(C)C)c3)cc12)c1ccccc1	0.0005 to 1	0.001 to 0.1	0.1 to 1	–
Cc1nc(-c2cc3c(Nc4cccc(Cl)c4)ncnc3[nH]2)sc1C	0.0005 to 1	0.001 to 0.1	0.1 to 1	–
CCNC(=O)Nc1ccc(-c2cc3c(Nc4cccc(Cl)c4)ncnc3[nH]2)cc1	0.0005 to 1	0.001 to 0.1	0.1 to 1	–
Cn1nnc(-c2cc3c(Nc4cccc(Cl)c4)ncnc3[nH]2)n1.Cn1nnnc1-c1cc2c(Nc3cccc(Cl)c3)ncnc2[nH]1	0.0005 to 1	0.001 to 0.1	0.1 to 1	–
Clc1cccc(Nc2ncnc3[nH]c(-c4ccc(N=CN5CCOCC5)cc4)cc23)c1	0.0005 to 1	0.001 to 0.1	0.1 to 1	–
O=C(Nc1ccc(-c2cc3c(Nc4cccc(Cl)c4)ncnc3[nH]2)cc1)c1ccco1	0.0005 to 1	0.001 to 0.1	0.1 to 1	–
ON=Cc1cc2c(Nc3cccc(Cl)c3)ncnc2[nH]1	0.0005 to 1	0.001 to 0.1	0.1 to 1	–
COC(=O)Nc1ccc(-c2cc3c(Nc4cccc(Cl)c4)ncnc3[nH]2)cc1	0.0005 to 1	0.001 to 0.1	0.1 to 1	–
COc1cc(-c2cc3c(Nc4cccc(Cl)c4)ncnc3[nH]2)ccc1O	0.0005 to 1	0.001 to 0.1	0.1 to 1	–
CCOC(=O)Nc1ccc(-c2cc3c(Nc4cccc(Cl)c4)ncnc3[nH]2)cc1	0.0005 to 1	0.001 to 0.1	0.1 to 1	–
Clc1cccc(Nc2ncnc3[nH]c(-c4nnn[nH]4)cc23)c1	0.0005 to 1	0.001 to 0.1	0.1 to 1	–
CCN(C=Nc1ccc(-c2cc3c(Nc4cccc(Cl)c4)ncnc3[nH]2)cc1)CC	0.0005 to 1	0.001 to 0.1	0.1 to 1	–
C[C@@H](Nc1ncnc2[nH]c(-c3ccc(N=CN(C)C)cc3)cc12)c1ccccc1	0.0005 to 1	0.001 to 0.1	0.1 to 1	–
CCS(=O)(=O)Nc1cccc(-c2cc3c(Nc4cccc(Cl)c4)ncnc3[nH]2)c1	0.0005 to 1	0.001 to 0.1	0.1 to 1	–
CC(C)S(=O)(=O)Nc1cccc(-c2cc3c(N[C@H](C)c4ccccc4)ncnc3[nH]2)c1	0.0005 to 1	0.001 to 0.1	0.1 to 1	–
CNC(=S)Nc1cccc(-c2cc3c(N[C@H](C)c4ccccc4)ncnc3[nH]2)c1	0.0005 to 1	0.001 to 0.1	0.1 to 1	–
COc1cc(-c2cc3c(Nc4ccccc4)ncnc3[nH]2)ccc1O	0.0005 to 1	0.001 to 0.1	0.1 to 1	–
O=C(Nc1ccccc1)Nc1cccc(-c2cc3c(Nc4cccc(Cl)c4)ncnc3[nH]2)c1	0.0005 to 1	0.001 to 0.1	0.1 to 1	–

Results, then the molecule that gave them:

IC50 [1] [µM]	IC50 [2] [µM]	IC50 [3] [µM]	IC100 [4]	Structure (SMILES)
0.0005 to 1	0.001 to 0.1	0.1 to 1	–	CCS(=O)(=O)Nc1ccc(-c2cc3c(N[C@H](C)c4ccccc4)ncnc3[nH]2)cc1
0.0005 to 1	0.001 to 0.1	0.1 to 1	–	CCS(=O)(=O)Nc1ccc(-c2cc3c(Nc4cccc(Cl)c4)ncnc3[nH]2)cc1
0.0005 to 1	0.001 to 0.1	0.1 to 1	–	C[C@@H](Nc1ncnc2[nH]c(-c3cccc(NCc4ccccc4)c3)cc12)c1ccccc1
0.0005 to 1	0.001 to 0.1	0.1 to 1	–	CC(C)COC(=O)Nc1ccc(-c2cc3c(Nc4cccc(Cl)c4)ncnc3[nH]2)cc1
0.0005 to 1	0.001 to 0.1	0.1 to 1	–	O=C(c1cc2c(Nc3cccc(Cl)c3)ncnc2[nH]1)N1CCOCC1
0.0005 to 1	0.001 to 0.1	0.1 to 1	–	Clc1cccc(Nc2ncnc3[nH]c(-c4cccc(N=CN5CCOCC5)c4)cc23)c1
0.0005 to 1	0.001 to 0.1	0.1 to 1	–	CS(=O)(=O)Nc1ccc(-c2cc3c(Nc4cccc(Cl)c4)ncnc3[nH]2)cc1
0.0005 to 1	0.001 to 0.1	0.1 to 1	–	COc1cc(-c2cc3c(Nc4cccc(Cl)c4)ncnc3[nH]2)ccc1OCc1ccccc1
0.0005 to 1	0.001 to 0.1	0.1 to 1	–	COc1cc(-c2cc3c(Nc4cccc(C)c4)ncnc3[nH]2)ccc1O
0.0005 to 1	0.001 to 0.1	0.1 to 1	–	CS(=O)(=O)Nc1cccc(-c2cc3c(Nc4cccc(Cl)c4)ncnc3[nH]2)c1
0.0005 to 1	0.001 to 0.1	0.1 to 1	–	NC(=S)c1cc2c(Nc3cccc(Cl)c3)ncnc2[nH]1
0.0005 to 1	0.001 to 0.1	0.1 to 1	–	C[C@@H](Nc1ncnc2[nH]c(-c3cccc(NS(C)(=O)=O)c3)cc12)c1ccccc1
0.0005 to 1	0.001 to 0.1	0.1 to 1	–	COc1ccc(-c2cc3c(N[C@H](C)c4ccccc4)ncnc3[nH]2)cc1
0.0005 to 1	0.001 to 0.1	0.1 to 1	–	CC(C)S(=O)(=O)Nc1cccc(-c2cc3c(Nc4cccc(Cl)c4)ncnc3[nH]2)c1
0.0005 to 1	0.001 to 0.1	0.1 to 1	–	Oc1ccc(CNCc2cc3c(Nc4cccc(Cl)c4)ncnc3[nH]2)cc1
0.0005 to 1	0.001 to 0.1	0.1 to 1	–	CCNC(=O)Nc1cccc(-c2cc3c(Nc4cccc(Cl)c4)ncnc3[nH]2)c1
0.0005 to 1	0.001 to 0.1	0.1 to 1	–	CCNC(=O)Nc1cccc(-c2cc3c(N[C@H](C)c4ccccc4)ncnc3[nH]2)c1
0.0005 to 1	0.001 to 0.1	0.1 to 1	–	OCc1ccc(-c2cc3c(Nc4cccc(Cl)c4)ncnc3[nH]2)cc1
0.0005 to 1	0.001 to 0.1	0.1 to 1	–	CON=Cc1cc2c(Nc3cccc(Cl)c3)ncnc2[nH]1
0.0005 to 1	0.001 to 0.1	0.1 to 1	–	CNC(=S)Nc1ccc(-c2cc3c(N[C@H](C)c4ccccc4)ncnc3[nH]2)cc1
0.0005 to 1	0.001 to 0.1	0.1 to 1	–	COc1ccc(-c2csc(-c3cc4c(Nc5cccc(Cl)c5)ncnc4[nH]3)n2)cc1
0.0005 to 1	0.001 to 0.1	0.1 to 1	–	CC(C)S(=O)(=O)Nc1ccc(-c2cc3c(N[C@H](C)c4ccccc4)ncnc3[nH]2)cc1
0.0005 to 1	0.001 to 0.1	0.1 to 1	–	CCNC(=S)Nc1ccc(-c2cc3c(Nc4cccc(Cl)c4)ncnc3[nH]2)cc1
0.0005 to 1	0.001 to 0.1	0.1 to 1	–	O=C(c1ccc(-c2cc3c(Nc4cccc(Cl)c4)ncnc3[nH]2)cc1)N1CCOCC1
0.0005 to 1	0.001 to 0.1	0.1 to 1	–	Clc1cccc(Nc2ncnc3[nH]c(-c4nccs4)cc23)c1
0.0005 to 1	0.001 to 0.1	0.1 to 1	–	CC(C)C(=Nc1ccc(-c2cc3c(Nc4cccc(Cl)c4)ncnc3[nH]2)cc1)N(C)C
0.0005 to 1	0.001 to 0.1	0.1 to 1	–	C[C@@H](Nc1ncnc2[nH]c(-c3ccc(NS(C)(=O)=O)cc3)cc12)c1ccccc1
0.0005 to 1	0.001 to 0.1	0.1 to 1	–	O=C(Nc1ccc(-c2cc3c(Nc4cccc(Cl)c4)ncnc3[nH]2)cc1)c1cccs1
0.0005 to 1	0.001 to 0.1	0.1 to 1	–	Clc1cccc(Nc2ncnc3[nH]c(-c4ccc(N=CN5CCCCC5)cc4)cc23)c1
